In PubChem BioAssay (NCI):
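These data come from cells grown in 96-well plates and exposed to compound for 48 hours at five concentrations. GI50: concentration for 50% inhibition of growth. TGI: concentration producing complete growth inhibition.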

Assays:
Assay in all cases: growth of human tumour cells (NCI), 48 h
786-0 renal = test system: 786-0 renal
A498 renal = test system: A498 renal
A549 NSCLC = test system: A549 NSCLC
ACHN renal = test system: ACHN renal
BT-549 breast = test system: BT-549 breast
CAKI-1 renal = test system: CAKI-1 renal
CCRF-CEM leukemia = test system: CCRF-CEM leukemia
COLO 205 colon = test system: COLO 205 colon
DU-145 prostate = test system: DU-145 prostate
EKVX NSCLC = test system: EKVX NSCLC
HCC-2998 colon = test system: HCC-2998 colon
HCT-116 colon = test system: HCT-116 colon
HCT-15 colon = test system: HCT-15 colon
HL-60(TB) leukemia = test system: HL-60(TB) leukemia
HOP-62 NSCLC = test system: HOP-62 NSCLC
HOP-92 NSCLC = test system: HOP-92 NSCLC
HS 578T breast = test system: HS 578T breast
HT29 colon = test system: HT29 colon
IGROV1 ovarian = test system: IGROV1 ovarian
K-562 leukemia = test system: K-562 leukemia
KM12 colon = test system: KM12 colon
LOX IMVI melanoma = test system: LOX IMVI melanoma
M14 melanoma = test system: M14 melanoma
MCF7 breast = test system: MCF7 breast
MDA-MB-231 breast = test system: MDA-MB-231 breast
MDA-MB-435 = test system: MDA-MB-435
MOLT-4 leukemia = test system: MOLT-4 leukemia
NCI-H226 lung = test system: NCI-H226 lung
NCI-H23 lung = test system: NCI-H23 lung
NCI-H460 lung = test system: NCI-H460 lung
NCI-H522 lung = test system: NCI-H522 lung
NCI/ADR-RES ovarian = test system: NCI/ADR-RES ovarian
OVCAR-3 ovarian = test system: OVCAR-3 ovarian
OVCAR-4 ovarian = test system: OVCAR-4 ovarian
OVCAR-5 ovarian = test system: OVCAR-5 ovarian
OVCAR-8 ovarian = test system: OVCAR-8 ovarian
PC-3 prostate = test system: PC-3 prostate
RPMI-8226 leukemia = test system: RPMI-8226 leukemia
RXF 393 renal = test system: RXF 393 renal
SF-268 CNS = test system: SF-268 CNS
SF-295 CNS = test system: SF-295 CNS
SF-539 CNS = test system: SF-539 CNS
SK-MEL-2 melanoma = test system: SK-MEL-2 melanoma
SK-MEL-28 melanoma = test system: SK-MEL-28 melanoma
SK-MEL-5 melanoma = test system: SK-MEL-5 melanoma
SK-OV-3 ovarian = test system: SK-OV-3 ovarian
SN12C renal = test system: SN12C renal
SNB-19 CNS = test system: SNB-19 CNS
SNB-75 CNS = test system: SNB-75 CNS
SR leukemia = test system: SR leukemia
SW-620 colon = test system: SW-620 colon
T-47D breast = test system: T-47D breast
TK-10 renal = test system: TK-10 renal
U251 CNS = test system: U251 CNS
UACC-257 melanoma = test system: UACC-257 melanoma
UACC-62 melanoma = test system: UACC-62 melanoma
UO-31 renal = test system: UO-31 renal

CC(C)(C)c1ccc(C(=O)Nc2sc3c(c2C#N)CCC(=O)C3)cc1
GI50 (786-0 renal): 769 nM | GI50 (A498 renal): 1660 nM | TGI (A498 renal): 5.58 µM | GI50 (A549 NSCLC): 980 nM | TGI (A549 NSCLC): > 100 µM | GI50 (ACHN renal): 237 nM | TGI (ACHN renal): 641 nM | GI50 (BT-549 breast): 338 nM | TGI (BT-549 breast): 16.8 µM | GI50 (CAKI-1 renal): 235 nM | TGI (CAKI-1 renal): 793 nM | GI50 (CCRF-CEM leukemia): 69.7 nM | TGI (CCRF-CEM leukemia): > 100 µM | GI50 (COLO 205 colon): 328 nM | TGI (COLO 205 colon): 944 nM | GI50 (DU-145 prostate): 5.93 µM | TGI (DU-145 prostate): > 100 µM | GI50 (EKVX NSCLC): 1130 nM | TGI (EKVX NSCLC): > 100 µM | GI50 (HCC-2998 colon): 1250 nM | TGI (HCC-2998 colon): > 100 µM | GI50 (HCT-116 colon): 122 nM | GI50 (HCT-15 colon): 281 nM | TGI (HCT-15 colon): 3.4 µM | GI50 (HL-60(TB) leukemia): 505 nM | TGI (HL-60(TB) leukemia): 1950 nM | GI50 (HOP-62 NSCLC): 1240 nM | TGI (HOP-62 NSCLC): > 100 µM | GI50 (HOP-92 NSCLC): 1210 nM | TGI (HOP-92 NSCLC): 4.76 µM | GI50 (HS 578T breast): 339 nM | TGI (HS 578T breast): > 20.5 µM | GI50 (HT29 colon): 505 nM | TGI (HT29 colon): 3.83 µM | GI50 (IGROV1 ovarian): 657 nM | TGI (IGROV1 ovarian): > 20.4 µM | GI50 (K-562 leukemia): 87.4 nM | TGI (K-562 leukemia): > 71.4 µM | GI50 (KM12 colon): 418 nM | TGI (KM12 colon): > 100 µM | GI50 (LOX IMVI melanoma): 262 nM | GI50 (M14 melanoma): 412 nM | TGI (M14 melanoma): > 83.6 µM | GI50 (MCF7 breast): 320 nM | GI50 (MDA-MB-231 breast): 746 nM | TGI (MDA-MB-231 breast): 3 µM | GI50 (MDA-MB-435): 873 nM | TGI (MDA-MB-435): 4.82 µM | GI50 (MOLT-4 leukemia): 324 nM | TGI (MOLT-4 leukemia): > 100 µM | GI50 (NCI-H226 lung): 991 nM | TGI (NCI-H226 lung): 5.74 µM | GI50 (NCI-H23 lung): 443 nM | TGI (NCI-H23 lung): > 100 µM | GI50 (NCI-H460 lung): 890 nM | TGI (NCI-H460 lung): > 26 µM | GI50 (NCI-H522 lung): 233 nM | TGI (NCI-H522 lung): 1360 nM | GI50 (NCI/ADR-RES ovarian): 718 nM | TGI (NCI/ADR-RES ovarian): 5.75 µM | GI50 (OVCAR-3 ovarian): 473 nM | TGI (OVCAR-3 ovarian): 1630 nM | GI50 (OVCAR-4 ovarian): 223 nM | TGI (OVCAR-4 ovarian): 687 nM | GI50 (OVCAR-5 ovarian): 531 nM | TGI (OVCAR-5 ovarian): 5.78 µM | GI50 (OVCAR-8 ovarian): 643 nM | TGI (OVCAR-8 ovarian): > 100 µM | GI50 (PC-3 prostate): 139 nM | GI50 (RPMI-8226 leukemia): 90.2 nM | TGI (RPMI-8226 leukemia): 495 nM | GI50 (RXF 393 renal): 237 nM | TGI (RXF 393 renal): 796 nM | GI50 (SF-268 CNS): 625 nM | TGI (SF-268 CNS): > 100 µM | GI50 (SF-295 CNS): 658 nM | TGI (SF-295 CNS): > 26.2 µM | GI50 (SF-539 CNS): 209 nM | TGI (SF-539 CNS): 936 nM | GI50 (SK-MEL-2 melanoma): 960 nM | TGI (SK-MEL-2 melanoma): 2910 nM | GI50 (SK-MEL-28 melanoma): 704 nM | TGI (SK-MEL-28 melanoma): 5.67 µM | GI50 (SK-MEL-5 melanoma): 706 nM | TGI (SK-MEL-5 melanoma): 1700 nM | GI50 (SK-OV-3 ovarian): 2180 nM | TGI (SK-OV-3 ovarian): 9.94 µM | GI50 (SN12C renal): 611 nM | TGI (SN12C renal): > 53.5 µM | GI50 (SNB-19 CNS): 406 nM | TGI (SNB-19 CNS): > 100 µM | GI50 (SNB-75 CNS): 612 nM | TGI (SNB-75 CNS): 2600 nM | GI50 (SR leukemia): 149 nM | TGI (SR leukemia): > 38.1 µM | GI50 (SW-620 colon): 105 nM | TGI (SW-620 colon): 566 nM | GI50 (T-47D breast): 211 nM | TGI (T-47D breast): 905 nM | GI50 (TK-10 renal): 531 nM | TGI (TK-10 renal): 5.08 µM | GI50 (U251 CNS): 218 nM | TGI (U251 CNS): > 100 µM | GI50 (UACC-257 melanoma): 690 nM | TGI (UACC-257 melanoma): 3.47 µM | GI50 (UACC-62 melanoma): 347 nM | TGI (UACC-62 melanoma): 2240 nM | GI50 (UO-31 renal): 224 nM | TGI (UO-31 renal): 678 nM
